Data: patent US20060252798A1, “Metal ion chelators and therapeutic use thereof” (priority 2003, published 2006)
Several values for one entry are separate records, joined by “and”; a condition that tells them apart may be missing. Equal entries are not always repeated. Where two headings read alike, the source gives them in different places.

What was measured:
[1] = test system: SK-N-MC neuroepithelioma cells; assay: 59Fe mobilization from prelabelled SK-N-MC neuroepithelioma cells; format: cell-based, human
Experimental: The effect of chelators on ^59Fe release from prelabelled cells was studied using standard procedures.^18 Cells were prelabelled with ^59Fe-transferrin (0.75 μM) for 3 h at 37° C. […] The overlying medium was then removed and placed into γ-counting tubes. The cells were removed from the petri dishes in 1 ml of BSS using a plastic spatula and transferred to a separate set of γ-counting tubes.
The ability of the compounds to mobilise ^59Fe from SK-N-MC neuroepithelioma cells was assessed after a 3 h labelling period with ^59Fe-Tf (0.75 μM) at 37° C. […]
DFO and 311 were used as internal standards.

[2] = test system: SK-N-MC neuroepithelioma cells; assay: MTT cellular proliferation assay, SK-N-MC; format: cell-based, human
Experimental: […] […] After this incubation, 0.01 mL of MTT was added to each well and the plates incubated for 2 h at 37° C. The cells were then solubilised by adding 0.1 mL of 10% SDS-50% isobutanol in 0.01 M HCl and the plates then read at 570 nm on a scanning multiwell spectrophotometer (Titertek Multiscan; Beckman Instruments Inc, California). MTT colour formation was directly proportional to the number of viable cells.
The effect of the compounds on the proliferation of SK-N-MC neuroepithelioma cells was examined using the MTT assay (described above).
(§1) Dp2mT served as a negative control.

[3] = test system: SK-N-MC neuroepithelioma cells; assay: 3H-thymidine incorporation by SK-N-MC cells; format: cell-based, human; conditions: 20 h incubation then 2 h label; Mean ± SD, 4 experiments
Experimental: (§2) After a 20 h incubation of the SK-N-MC cells with a selection of analogues, ^3H-thymidine, ^3H-leucine, or ^3H-uridine (1 μCi/ml) was added for 2 h at 37° C. The cells were detached from the 96 well plate using 1 mM EDTA in Ca(II)/Mg(II)-free PBS and collected and washed using a cell harvester (Tomtec Harvester 96, Linbrook, Queensland, Australia). Radioactivity was measured on a P-scintillation counter (LKB Wallace, Turku, Finland).

[4] = test system: SK-N-MC neuroepithelioma cells; assay: 3H-leucine incorporation by SK-N-MC cells; format: cell-based, human; conditions: 20 h incubation then 2 h label; Mean ± SD, 4 experiments
Experimental: as §2

[5] = test system: SK-N-MC neuroepithelioma cells; assay: 3H-uridine incorporation by SK-N-MC cells; format: cell-based, human; conditions: 20 h incubation then 2 h label; Mean ± SD, 3 experiments
Experimental: as §2

MRC-5 fibroblasts = assay: MTT cellular proliferation assay, MRC-5 fibroblasts; format: cell-based, human
Experimental: (§3) The final concentration of the compounds was 0.39-50 μM. […] […] After this incubation, 0.01 mL of MTT was added to each well and the plates incubated for 2 h at 37° C. The cells were then solubilised by adding 0.1 mL of 10% SDS-50% isobutanol in 0.01 M HCl and the plates then read at 570 nm on a scanning multiwell spectrophotometer (Titertek Multiscan; Beckman Instruments Inc, California). MTT colour formation was directly proportional to the number of viable cells.
The MRC-5 cell type is a normal human lung fibroblast cell strain that is mortal and senesces after a number of passages in vitro. The SK-N-MC neuroepithelioma cell type is immortal.
as §1

SK-Mel-28 melanoma cells = assay: MTT cellular proliferation assay, SK-Mel-28; format: cell-based, human
Experimental: as §3, §1
(§4) Dp2mT served as a negative control as the methyl group at the 2-position hinders Fe-chelation.

[6] = test system: MCF-7 breast cancer cells; assay: MTT cellular proliferation assay, MCF-7; format: cell-based, human
Experimental: […] […] […] After this incubation, 0.01 mL of MTT was added to each well and the plates incubated for 2 h at 37° C. The cells were then solubilised by adding 0.1 mL of 10% SDS-50% isobutanol in 0.01 M HCl and the plates then read at 570 nm on a scanning multiwell spectrophotometer (Titertek Multiscan; Beckman Instruments Inc, California). MTT colour formation was directly proportional to the number of viable cells.
as §1, §4

H69AR lung cancer = assay: MTT cellular proliferation assay, H69AR; format: cell-based; conditions: Homo sapiens, H69AR, 0-50 μM, 72 h, 1 experiment
Experimental: as §3
(§5) At the end of the incubation period, cell density was determined by the MTT assay (described above).

IMR-32 Neuroblastoma = assay: MTT cellular proliferation assay, IMR-32; format: cell-based; conditions: Homo sapiens, IMR-32, 0-50 μM, 72 h, 1 experiment
Experimental: as §3, §5

HEP G2 Hepatoma = assay: MTT cellular proliferation assay, HEP G2; format: cell-based; conditions: Homo sapiens, HepG2, 0-50 μM, 72 h, 1 experiment
Experimental: as §3, §5

DU 145 prostate cancer = assay: MTT cellular proliferation assay, DU 145; format: cell-based; conditions: Homo sapiens, DU-145, 0-50 μM, 72 h, 2 experiments
Experimental: as §3, §5

NCI H2452 mesothelioma = assay: MTT cellular proliferation assay, NCI H2452; format: cell-based; conditions: Homo sapiens, NCI-H2452, 0-50 μM, 72 h, 3 experiments
Experimental: as §3, §5

[7] = test system: SK-N-MC neuroepithelioma cells; assay: 59Fe uptake from 59Fe-transferrin by SK-N-MC neuroepithelioma cells; format: cell-based, human; conditions: 25 μM, 3 h at 37° C. (FIG. 11B)
Experimental: The cells were then placed on ice and washed four times with ice-cold Hank's balanced salt solution (BSS) to remove non-specifically bound ^59Fe-Tf. Cells were then incubated with the general protease, pronase (1 mg/ml), for 30 min at 4° C. to remove membrane-bound ^59Fe and Tf.
PCTH was used as an internal control.

Ndrg1 = Ndrg1 expression in MCF-7 cells (Western blotting); format: cell-based, human; conditions: 25 μM, 24 h, MCF-7 cells (FIG. 16)
Experimental: FIG. 16. […] The expression of Ndrg1 and β-actin protein levels were assessed by Western blotting.
MCF-7 cells were incubated for 24 h with a range of metal ion chelators. […] Dp2mT was used as a negative control, […]

GADD45 and WAF1 mRNA = assay: Northern blot of WAF1 and GADD45 mRNA expression in SK-N-MC cells; format: cell-based, human; conditions: DFO 100 μM, other chelators 25 μM, 20 h at 37° C. (FIG. 7)
Experimental: FIG. 7. […] Northern blotting was performed using standard procedures (see Example 6).
Northern blot analysis was performed by isolating total RNA using the Total RNA Isolation Reagent (Advanced Biotechnologies Ltd, Surrey, United Kingdom). The membranes were hybridised with probes specific for human WAF1, GADD45, and β-actin. The WAF1 probe consisted of a 1 kb fragment from pSXV (ATCC; Cat. No. 79928). The GADD45 probe consisted of a 760 bp fragment from human GADD45 cDNA cloned into pHu145B2 (kindly supplied by Dr. Albert Fornace, National Cancer Institute, NIH, Maryland). The β-actin probe consisted of a 1.4 kb fragment from human β-actin cDNA cloned into pBluescript SK− (ATCC; Cat. No. 37997).

[8] = Table 2, MTT assay, 90 h incubation, Mean ± SD, 4 experiments, read-out: IC50 Values of Chelators
[9] = Table 3, 0-25 μM, 72 h, MTT, mean ± SD, read-out: IC50 SK-N-MC neuroepithelioma
[10] = Table 3, normal cells, 72 h, MTT, read-out: IC50 MRC-5 fibroblasts
[11] = Table 3, 72 h, MTT, mean ± SD, read-out: IC50 MCF-7 breast cancer
[12] = Homo sapiens, MCF7, values given in Example 8 text, read-out: IC50, anti-proliferative activity in MCF-7 cells
[13] = Homo sapiens, SK-N-MC, 90 h, Table 2, MTT assay, 90 h incubation, Mean ± SD, 4 experiments, read-out: IC50 Values of Chelators

## 2-pyridylketone 2-thiophenecarboxaldehyde hydrazone [PCTH]
[1]; chelator 1 μM, 3 h reincubation at 37° C. (FIG. 5A)
  cellular 59Fe released: 10%
[2]; [8]
  IC50: 48 ± 4 µM
[3]
  3H-Thymidine Incorporation: 64 ± 14 % Control
[4]
  3H-Leucine Incorporation: 21 ± 6 % Control
[5]
  3H-Uridine Incorporation: 43 ± 2 % Control

## 2-quinolinecarboxaldehyde 2-thiophenecarboxaldehyde hydrazone [QCTH]
[2]; [8]
  IC50: > 50 µM
[3]
  3H-Thymidine Incorporation: 83 ± 6 % Control

## O=C(NN=Cc1c(O)ccc2ccccc12)c1cccnc1 [311m, 2-hydroxy-1-naphthylaldehyde nicotinoyl hydrazone]
[2]; [9]
  IC50: 0.8 ± 0.2 µM
MRC-5 fibroblasts; [10]
  IC50: > 25 µM
SK-Mel-28 melanoma cells; Table 3, 72 h, mean ± SD
  IC50: 1.4 ± 0.4 µM
[6]; [11]
  IC50: 0.9 ± 0.4 µM

## COc1cccc2c1C(=O)c1c(O)c3c(c(O)c1C2=O)C[C@@](O)(C(=O)CO)C[C@@H]3O[C@H]1C[C@H](N)[C@H](O)[C@H](C)O1 [Dox, doxorubicin]
[2]; Homo sapiens, SK-N-MC, 72 h, Table 3, 0-25 μM, 72 h, MTT, mean ± SD, read-out: IC50 SK-N-MC neuroepithelioma
  IC50: 0.02 µM
SK-Mel-28 melanoma cells; Homo sapiens, SK-MEL-28, 72 h, Table 3, mean ± SD
  IC50: 0.35 ± 0.09 µM
[6]; Homo sapiens, MCF7, 72 h, Table 3, 72 h, MTT, mean ± SD, read-out: IC50 MCF-7 breast cancer
  IC50: 0.6 ± 0.2 µM
H69AR lung cancer
  IC50: 0.39 µM
IMR-32 Neuroblastoma
  IC50: 0.01 µM
HEP G2 Hepatoma
  IC50: 2.61 µM
DU 145 prostate cancer
  IC50: 0.09 µM
NCI H2452 mesothelioma
  IC50: 0.17 µM

## CN(N=C(c1ccccn1)c1ccccn1)C(N)=S [Dp2mT, di-2-pyridylketone 2-methyl-3-thiosemicarbazone]
[7]
  prevention of 59Fe uptake from 59Fe-Tf: little effect
[2]; [9]
  IC50: > 25 µM
MRC-5 fibroblasts; [10]
  IC50: > 25 µM
SK-Mel-28 melanoma cells; Table 3, 72 h, mean ± SD
  IC50: > 25 µM
[6]; [11]
  IC50: > 25 µM
Ndrg1
  up-regulation of Ndrg1: no effect

## O=C(O)CN(CCN(CC(=O)O)CC(=O)O)CC(=O)O [EDTA, ethylenediamine tetraacetic acid]
[6]; [12]
  IC50: > 250 µM
Ndrg1
  up-regulation of Ndrg1: no effect

## Cc1c(O)c(=O)ccn1C [L1, deferiprone]
[6]; [12]
  IC50: 180 µM
Ndrg1
  up-regulation of Ndrg1: no effect

## O=C(NN=C(c1ccccn1)c1ccccn1)c1cccc(Br)c1 [PCBBH, 2-pyridylketone 3-bromobenzoyl hydrazone]
[2]; [8]
  IC50: 40 ± 12 µM
GADD45 and WAF1 mRNA
  GADD45 and WAF1 mRNA expression: up-regulation

## O=C(NN=C(c1ccccn1)c1ccccn1)c1ccccc1 [PCBH, 2-pyridylketone benzoyl hydrazone]
[2]; [8]
  IC50: 46 ± 7 µM
[3]
  3H-Thymidine Incorporation: 72 ± 16 % Control
[4]
  3H-Leucine Incorporation: 30 ± 13 % Control
[5]
  3H-Uridine Incorporation: 31 ± 9 % Control
GADD45 and WAF1 mRNA
  GADD45 and WAF1 mRNA expression: little effect

## O=C(NN=C(c1ccccn1)c1ccccn1)c1cccc(Br)c1 [PKBBH, di-2-pyridylketone 3-bromobenzoyl hydrazone]
[2]; [8]
  IC50: 1 ± 1 µM
MRC-5 fibroblasts; Homo sapiens, MRC5, Example 4c, FIG. 6, read-out: IC50 values in fibroblasts
  IC50: 8 µM
[3]
  3H-Thymidine Incorporation: 0.02 % Control and 0.02 ± 0.01 % Control
[4]
  3H-Leucine Incorporation: 8 ± 1 % Control
[5]
  3H-Uridine Incorporation: 3 ± 1 % Control
GADD45 and WAF1 mRNA
  GADD45 and WAF1 mRNA expression: pronounced effect

## Nc1ccc(C(=O)NN=Cc2ccc3ccccc3n2)cc1 [QCAH, 2-quinolinecarboxaldehyde 4-aminobenzoyl hydrazone]
[2]; [13]
  IC50: > 50 µM
[3]
  3H-Thymidine Incorporation: 43 ± 2 % Control

## O=C(NN=Cc1ccc2ccccc2n1)c1cccc(Br)c1 [QCBBH, 2-quinolinecarboxaldehyde 3-bromobenzoyl hydrazone]
[2]; [13]
  IC50: 49 ± 3 µM
[3]
  3H-Thymidine Incorporation: 81 ± 10 % Control

## O=C(NN=Cc1ccc2ccccc2n1)c1ccccc1 [QCBH, 2-quinolinecarboxaldehyde benzoyl hydrazone]
[2]; [13]
  IC50: 50 ± 1 µM
[3]
  3H-Thymidine Incorporation: 64 ± 5 % Control

## O=C(NN=Cc1ccc2ccccc2n1)c1ccc(O)cc1 [QCHH, 2-quinolinecarboxaldehyde 4-hydroxybenzoyl hydrazone]
[2]; [13]
  IC50: > 50 µM
[3]
  3H-Thymidine Incorporation: 41 ± 2 % Control

## O=C(NN=Cc1ccc2ccccc2n1)c1ccncc1 [QCIH, 2-quinolinecarboxaldehyde isonicotinoyl hydrazone]
[1]; DFO 100 μM, other chelators 50 μM, 3 h (FIG. 3)
  59Fe mobilisation from prelabelled cells: comparable cellular ^59Fe mobilisation to PCIH
[2]; [13]
  IC50: 49 ± 3 µM
[3]
  3H-Thymidine Incorporation: 77 ± 9.5 % Control

## c1ccc(-c2ccccn2)nc1 [dipyridyl]
[6]; Homo sapiens, MCF7, read-out: IC50, anti-proliferative activity in MCF-7 cells
  IC50: > 250 µM
Ndrg1
  up-regulation of Ndrg1: no effect

## CC(C)(S)[C@@H](N)C(=O)O [penicillamine]
Ndrg1
  up-regulation of Ndrg1: no effect
